# Source: US20230355599A1, “BIOMARKERS FOR CBL, AND COMPOSITIONS AND METHODS FOR THEIR USE” (NURIX THERAPEUTICS, INC., priority 2022, published 2023)
# Tests used:
# [1] = test system: A20 lymphoma tumor model; assay: A20 lymphoma tumor model, anti-tumor activity; assay type: in vivo, mouse; settings: dosed at 10, 30 or 60 mg/kg
# Description: An elevated percentage of pHS1+CD8+ T cells correlated with potent anti-tumor effects in mouse syngeneic tumor models and defined a biomarker therapeutic range. At this therapeutic range, approximately 50% proximal biomarker pHS1 correlates with the efficacious range.
# [2] = test system: pY319-Zap70; assay: Phosphoprotein screen in human whole blood with CBL inhibitor at 10 uM: ZAP70; assay type: cell-based; settings: 1 hr 37° C., human whole blood 8 donors, anti-CD3/CD28 + crosslinker 60 minutes
# Method: (§1) To identify proximal biomarkers of CBL-B inhibition in immune cells, a panel of phosphorylated proteins were screened in human whole blood incubated with CBL-B inhibitor and concomitant anti-CD3 and anti-CD28 antibodies. The effect of CBL-B inhibition was assessed across multiple cellular signaling networks.
# (§2) Human heparinized whole blood from 8 donors was received after an overnight shipment at 4° C. The blood was plated, treated with CBL inhibitor at 10 uM and incubated at 37° C. for 60 minutes. After incubation, the cells were stimulated with anti-CD3/CD28 followed by a cross-linking antibody (30 μg of goat anti-mouse IgG (H+L) antibody (Invitrogen)). After 60 minutes, the cells were fixed, and stained using surface markers for T cells (CD3^+CD4^+& CD3^+CD8^+) and analyzed by flow cytometry for target phosphorylation of the following markers: pY180/pY511-ITK, pY397-HS1, pY759-PLCg2, pY783-PLCg1, pY525/pY526/pY348-SYK & pY319-Zap70.
# (§3) Fold change of each biomarker was calculated with the following example equation: […]
# (§4) Whole blood from eight human donors was collected in sodium heparin anti-coagulant treated with 10 μM of Compound 23 for 1 hr at 37° C. […] Fold change of % phosphorylation normalized to DMSO was quantitated in T cells (CD8^+) using flow cytometry is provided in FIGS. 6A-6B.
# [3] = test system: phosphorylated PLCγ2; assay: Phosphorylated PLCγ2 in human CD8+ T cells from whole blood in vitro (flow cytometry); assay type: cell-based; settings: T-cell, whole blood from six human donors, 2 hrs 37° C., anti-CD3/anti-CD28 + crosslinker 60 minutes, read-out: Average mean EC50±standard deviation, phosphorylated PLCγ2
# Method: (§5) To assess these candidate clinical proximal biomarkers of Cbl-b inhibition on T cells, pharmacodynamic analysis was performed. Whole blood was obtained from human donors and incubated with increasing concentrations of Compound 23. The response to Cbl-b inhibition on phosphorylated HS1, PLCγ2, and ZAP70 was measured in CD8^+ T cells using flow cytometry. This technique is highly quantitative and can measure multiple phosphorylation markers in different cell populations within the same sample.
# (§6) For pharmacodynamic analysis, whole blood was obtained from six human donors (BioIVT) and used for flow cytometry assays to evaluate phosphorylated biomarkers HS1, PLCγ2, and ZAP70 in CD8^+ T cells.
# (§7) Whole blood was collected in a collection tube coated with sodium heparin. […]
# (§8) Stained cells were run on an Attune NxT Acoustic Focusing Flow Cytometer (Thermo Fisher, cat. No. A29004), and data was analyzed using FlowJo (v10.6.1) and GraphPad Prism (v8.00) software. Single lymphocytes were gated for CD8^+ cells (CD45^+/CD8^+) cells, and population frequencies were calculated for each population. The data is quantified by the percent positive. […] As protein becomes phosphorylated the fluorescence increases resulting in a larger fraction of the cells entering that gate. Each population was evaluated for % positive pY759-PLCγ2, pY397-HS1 levels, pY319/Syk (Y352)-ZAP70 levels.
# [4] = test system: phosphorylated ZAP70; assay: Phosphorylated ZAP70 in human CD8+ T cells from whole blood in vitro (flow cytometry); assay type: cell-based; settings: T-cell, whole blood from six human donors, 2 hrs 37° C., anti-CD3/anti-CD28 + crosslinker 60 minutes, read-out: Average mean EC50±standard deviation, phosphorylated ZAP70
# Method: as §5, §6, §7, §8
# [5] = test system: pY783-PLCg1; assay: Phosphoprotein screen in human whole blood with CBL inhibitor at 10 uM: PLCγ1; assay type: cell-based; settings: 1 hr 37° C., human whole blood 8 donors, anti-CD3/CD28 + crosslinker 60 minutes
# Method: as §1, §2, §3, §4
smiles,measurement,setting,value
C[C@H]1CCCN(Cc2cc3c(c(C(F)(F)F)c2)CN(c2cccc([C@]4(c5nncn5C)C[C@@H](C)C4)c2)C3=O)C1 [Compound 23],median survival time compared to the vehicle control,[1],prolonged median survival time
same,tumor size compared to the vehicle control,[1],significantly smaller tumors
same,increased phosphorylation of ZAP70 compared to DMSO control,[2],2-3 fold
same,EC50,[3],74 ± 4.95 nM
same,EC50,[4],120 ± 8.97 nM
same,increased phosphorylation of PLCγ1 compared to DMSO control,[5],2-3 fold
